Where “and” joins values, the source holds several entries; their conditions need not be identical. Equal entries are not always repeated.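 A five-concentration, 48-hour dose response in 96-well plates underlies each endpoint, interpolated linearly between surrounding concentrations. GI50 marks 50% less growth. TGI: concentration producing complete growth inhibition.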
Assays:
Experiment in all cases: inhibition of tumour cell growth, NCI panel, 48 h
MCF7 breast = test system: MCF7 breast
HL-60(TB) leukemia = test system: HL-60(TB) leukemia
M14 melanoma = test system: M14 melanoma
HOP-92 NSCLC = test system: HOP-92 NSCLC
OVCAR-5 ovarian = test system: OVCAR-5 ovarian
OVCAR-4 ovarian = test system: OVCAR-4 ovarian
SK-MEL-28 melanoma = test system: SK-MEL-28 melanoma
DU-145 prostate = test system: DU-145 prostate
CAKI-1 renal = test system: CAKI-1 renal
SK-MEL-2 melanoma = test system: SK-MEL-2 melanoma
IGROV1 ovarian = test system: IGROV1 ovarian
MOLT-4 leukemia = test system: MOLT-4 leukemia
NCI-H522 lung = test system: NCI-H522 lung

SMILES | TGI (MCF7 breast) | TGI (HL-60(TB) leukemia) | TGI (M14 melanoma) [µM] | TGI (HOP-92 NSCLC) | TGI (OVCAR-5 ovarian) | TGI (OVCAR-4 ovarian) | TGI (SK-MEL-28 melanoma) [µM] | TGI (DU-145 prostate) [µM] | TGI (CAKI-1 renal) | TGI (SK-MEL-2 melanoma) | TGI (IGROV1 ovarian) | TGI (MOLT-4 leukemia) | TGI (NCI-H522 lung) | GI50 (HL-60(TB) leukemia) [µM] | GI50 (MOLT-4 leukemia) | GI50 (NCI-H522 lung) | GI50 (SK-MEL-2 melanoma) [nM] | GI50 (HOP-92 NSCLC) [µM] | GI50 (MCF7 breast) [nM] | GI50 (DU-145 prostate) [µM]
CC1CC[C@@]2(OC1)OC1CC3C4CCC5C[C@@H](OC6OC(CO)C(OC7OC(CO)C(O)C(OC8OC(CO)C(O)C(OC9OC(CO)C(O)C(O)C9O)C8O)C7OC7OC(CO)C(O)C(O)C7O)C(O)C6O)[C@H](O)C[C@]5(C)C4CC[C@]3(C)C1[C@@H]2C (some centres undefined) | > 80.5 µM | > 80.5 µM | > 80.5 | > 80.5 µM | > 80.5 µM | > 80.5 µM | > 80.5 | > 80.5 | > 80.5 µM | – | – | – | – | – | – | – | – | – | – | –
O=S(=O)(O)c1ccc(N=Nc2c(O)ccc3cc(Br)ccc23)cc1 | – | – | > 100 | > 100 µM | > 100 µM | > 100 µM | > 100 | > 100 | > 100 µM | > 100 µM | > 100 µM | > 100 µM | > 100 µM | – | – | – | – | – | – | –
OC1CCOc2ccccc21 (centres undefined) | – | > 100 µM | > 100 | – | > 100 µM | > 100 µM | > 100 | – | > 100 µM | > 100 µM | > 100 µM | > 100 µM | > 100 µM | – | – | – | – | – | – | –
CNC(=O)SCC(N)C(=O)O (centres undefined) | > 100 µM | > 100 µM | – | > 100 µM | > 100 µM | > 100 µM | > 100 | – | > 100 µM | > 100 µM | > 100 µM | > 100 µM | > 100 µM | – | – | – | – | – | – | –
COc1cccc(/C=N/[N-]C(N)=O)c1[O-].[Ni+2].[OH3+].c1ccc(-c2ccccn2)nc1 | – | > 100 µM | > 100 | 98.1 µM | > 100 µM | > 100 µM | > 100 | – | > 100 µM | > 100 µM | > 100 µM | > 100 µM | > 100 µM | 66.9 | – | – | – | – | – | –
CC(=O)OC/C=C\Cn1nc(Br)c(=O)[nH]c1=O | 28.5 µM | 17.6 µM | 30.9 | 27.9 µM | 31.8 µM | – | 32 | 31.9 | 22.8 µM | 30.6 µM | 29.4 µM | – | 16.7 µM | – | – | – | – | – | – | –
C[C@]12CC/C(=N\O)C=C1CC[C@@H]1[C@@H]2CC[C@]2(C)C(=N/O)/C(=C/c3ccc([N+](=O)[O-])cc3)C[C@@H]12 | > 100 µM | 8.91 µM | 16 | 22.1 µM | – | 44.4 µM | > 100 | 28.8 | 6.41 µM | 17.1 µM | 12.5 µM | 9.55 µM | 9.64 µM | – | – | – | – | – | – | –
CCOC(=O)c1c(Cl)nc2ccccc2c1N=[N+]=[N-] | – | > 100 µM | 34.1 | 59.5 µM | 41.1 µM | 31.7 µM | > 100 | – | 43.4 µM | 71.5 µM | 46.9 µM | > 100 µM | 31.4 µM | – | – | – | – | – | – | –
C1=C(c2ccccc2)Nc2nnnn2C1c1ccccc1 (centres undefined) | 84.6 µM | 64.4 µM | 79.8 | – | > 100 µM | – | – | 72.5 | > 100 µM | > 100 µM | > 100 µM | 60.3 µM | 69.8 µM | – | – | – | – | – | – | –
COC(=O)c1c(O)ccc2c1c1c(n2Cc2ccc(Cl)cc2Cl)C(=O)c2ccccc2C1=O | 15.9 µM | 34.2 µM | 29 | 25.1 µM | 42.9 µM | 11.6 µM | 30 | 31.2 | 27.2 µM | 28.8 µM | 26.9 µM | 7.17 µM | 22 µM | – | – | – | – | – | – | –
CC(=O)O[C@H]1/C(=C/c2ccncc2)C[C@H]2[C@@H]3CC=C4C[C@@H](N5CCCC5)CC[C@]4(C)[C@H]3CC[C@]12C | 25.8 µM | 26.1 µM | 23.8 | 19.8 µM | 27.2 µM | 37.7 µM | 26 | 28 | 27.9 µM | 32.1 µM | 27.1 µM | 30.3 µM | 34.9 µM | – | – | – | – | – | – | –
CC1CCC2(C(=O)O)CCC3(C)C(=CCC4C5(C)CCC(O)C(C)(C)C5CCC43C)C2C1C (centres undefined) | 25.6 µM and 43.7 µM | 19 µM and 6.49 µM | 4.28 | 21.1 µM and 42.6 µM | 19.6 µM and 23.2 µM | 24.2 µM and 31.9 µM | – | 21.6 | 16.6 µM and 17.5 µM | 19 µM and 30.2 µM | 26.9 µM and 33.2 µM | 16.7 µM and 37.2 µM | 17.8 µM and 28.9 µM | – | 3.66 µM and 12.1 µM | 6.98 µM and 14.4 µM | – | – | – | –
O=C(N/N=C/c1cc(Cl)cc(Cl)c1[O-])c1ccccc1O.O=C(N/N=C/c1cc(Cl)cc(Cl)c1[O-])c1ccccc1O.[Zn+2] | – | 0.715 µM | 6.88 | 4.98 µM | 14.6 µM | 2.4 µM | 14.8 | – | 8.45 µM | 11.5 µM | 6.82 µM | 18 µM | 0.764 µM | – | 0.0115 µM | – | 591 | 0.363 | – | –
CCC(=O)c1ccc2[nH]c3c(C)c4c(=O)cc(C)[nH]c4c(C)c3c2c1 | > 100 µM | > 100 µM | > 100 | 82.3 µM | > 100 µM | > 100 µM | > 100 | > 100 | > 100 µM | > 100 µM | > 100 µM | > 100 µM | > 100 µM | – | – | – | – | – | – | –
C/C=C/C1=CC(=O)C(O)C1O (centres undefined) | 122 µM | 57.5 µM | – | 66 µM | 130 µM | 111 µM | 97.9 | – | 43.7 µM | 133 µM | 141 µM | 109 µM | 15.5 µM | – | – | – | – | – | – | –
COc1ccc(/C(O)=C/c2nc3cccnc3nc2/C=C(\O)c2ccc(OC)cc2)cc1 | 50.1 µM | > 100 µM | 69.2 | > 100 µM | > 100 µM | 18.3 µM | 69 | > 100 | 46.5 µM | 91.7 µM | 25.4 µM | > 100 µM | – | – | – | – | – | – | – | –
COc1cc(OC)c(/C=C\c2cc(/C=C/c3c(OC)cc(OC)cc3OC)c3ccccc3[n+]2C)c(OC)c1 | > 39.8 µM | 5.62 µM | 12.7 | 8.08 µM | 57 µM | 36.4 µM | 10.9 | 20.9 | – | – | 38.3 µM | 5.48 µM | 7.58 µM | – | – | – | – | – | – | –
Cc1ccc(-c2cc(C(F)(F)F)nn2-c2ccc(S(N)(=O)=O)cc2)cc1 | > 58.4 µM | 42.7 µM | > 60 | 29.8 µM | > 59.8 µM | 46.4 µM | > 56.2 | > 57.7 | > 60.1 µM | 43.5 µM | > 54.6 µM | 53.2 µM | 77.6 µM | – | – | 19.9 µM | – | 12 | – | –
S=C1CC(c2ccccc2)Sc2ccccc2N1 (centres undefined) | > 100 µM | > 100 µM | > 100 | – | > 100 µM | > 100 µM | > 100 | > 100 | > 100 µM | – | > 100 µM | > 100 µM | > 100 µM | – | – | – | – | – | – | –
[O-][n+]1ccccc1S | > 100 µM | – | > 100 | > 100 µM | > 100 µM | 4.4 µM | > 100 | 46.8 | 8.09 µM | 9.13 µM | 4.09 µM | – | 5.14 µM | – | – | – | – | – | 1930 | 3.48
CC1(C)Cc2c(C#N)c(N)c3c(c2CO1)C(=O)OC3=O | – | > 100 µM | > 100 | – | > 100 µM | > 100 µM | > 100 | – | > 100 µM | > 100 µM | > 100 µM | > 100 µM | > 100 µM | – | – | – | – | – | – | –
CC(=O)NC(CCC(=O)C=[N+]=N)C(=O)O (centres undefined) | > 100 µM | > 100 µM | > 100 | > 100 µM | > 100 µM | > 100 µM | > 100 | > 100 | – | > 100 µM | > 100 µM | > 100 µM | > 100 µM | – | – | – | – | – | – | –
Cc1[nH]nc(N)c1C(N)=O | – | > 100 µM | > 100 | – | > 100 µM | > 100 µM | > 100 | – | > 100 µM | > 100 µM | > 100 µM | > 100 µM | > 100 µM | – | – | – | – | – | – | –
